Measured values as given in PMC11249953, “c-KIT inhibitors reduce pathology and improve behavior in the Tg(SwDI) model of Alzheimer’s disease” (Life Science Alliance, 2024).
Where “and” joins values, the source holds several entries; their conditions need not be identical. Equal entries are not always repeated.

Key:
[1] = test system: peripheral mast cells of TgAPP mice; experiment: In vivo mast cell analysis (flow cytometry of whole blood, CD117 / FcεR1); parameters: species or system mouse; key to CD117 (single-labelled mast cells): % of single-labelled (CD117+) mast cells; CD117 Total: unit not given here; settings: for ratio of immature-to-mature mast cells (c-KIT+ versus c-KIT+/FcεR1α+) in whole blood: TgAPP mice, BK40143 5 mg/kg, BK40197 45 mg/kg, 6 wk, vs DMSO
Source text: c-KIT is responsible for mast cell development and homeostasis ([Lake et al, 1978]; [Linnekin, 1999]; [Kitamura et al, 2006]). TKs are the central driving force for processes leading to mast cell activation ([Parravicini et al, 2002]; [Gomez et al, 2005]). Multiple receptors are capable of mediating or modifying mast cell activation ([Kraft & Kinet, 2007]; [Kuehn & Gilfillan, 2007]), the major receptor responsible being FcεRI, the high affinity receptor for immunoglobulin E (IgE) ([Rivera & Gilfillan, 2006]). Mast cells are tissue-resident cells of hematopoietic lineage which are derived from CD13^+CD34^+KIT(CD117)^+ bone marrow pluripotent progenitors ([Kirshenbaum et al, 1999]). Although mast cells play an important role in the innate immune system ([Marshall, 2004]; [Galli et al, 2005]), these cells are also responsible for the detrimental exaggerated reactions to antigen ([Galli et al, 2008]) that follow the release of potent inflammatory mediators as a consequence of receptor-mediated mast cell activation ([Metcalfe et al, 1997]). The progression of these cells to fully mature mast cells is dependent on c-KIT activation which occurs because of stem cell factor-induced c-KIT dimerization and auto-phosphorylation ([Kirshenbaum et al, 1999]). To verify the functional effects of BK40143 and BK40197 on c-KIT inhibition, we investigated whether inhibition of c-KIT with BK40143 and BK40197 affects peripheral mast cell populations in vivo. We collected whole blood samples from Tg(SwDI) (referred to as TgAPP) mice treated with 5 or 45 mg/kg of each drug, respectively, or DMSO for 6 wk before isolating mast cells for analysis via flow cytometry (Fig 3A–C). Whole blood was sorted for mast cells using a triple gating strategy: 647 anti-CD45 to isolate leukocytes, PE anti-c-KIT to isolate mast cells, and APC/fire anti-FcεR1α to identify mature mast cells. The ratio of immature-to-mature mast cells (c-KIT+ versus c-KIT+/ FcεR1α+) was compared between c-KIT inhibited and DMSO-treated controls to determine the functional consequence of c-KIT inhibition on peripheral mast cell maturation.
Whole blood samples were harvested from the right ventricle of treated and untreated mice and added to 1,000 U/ml heparin-coated tubes to prevent coagulation. 100 μl of blood was then treated with three flow-conjugated antibodies: 647 anti-mouse CD45 (cat. #103123; BioLegend), PE anti-mouse CD117 (c-KIT) (cat. # 105807; BioLegend), and APC/fire 750 anti-mouse FcεR1α (cat. #134339; BioLegend) for 30 min, then treated with 1x RBC lysis buffer (cat. #420301; BioLegend) for 20 min. Cells were washed and resuspended in cell staining buffer before being analyzed on a Becton Dickinson LSRFortessas flow cytometer. Immature-to-mature mast cell ratio was calculated by dividing the percentage of single-labelled (CD117+) mast cells by the total number of c-KIT expressing cells (CD117+ plus CD117+ FcεR1+). All animal work was approved by Georgetown University Animal Care and Use Committee (GUACUC).

phospho-c-KIT = experiment: Western blot for phospho-c-KIT in brain lysates; assay type: in vivo, mouse; settings: TgAPP mice; BK40143 5 mg/kg, BK40197 45 mg/kg; vs DMSO
Source text: c-KIT is responsible for mast cell development and homeostasis ([Lake et al, 1978]; [Linnekin, 1999]; [Kitamura et al, 2006]). TKs are the central driving force for processes leading to mast cell activation ([Parravicini et al, 2002]; [Gomez et al, 2005]). Multiple receptors are capable of mediating or modifying mast cell activation ([Kraft & Kinet, 2007]; [Kuehn & Gilfillan, 2007]), the major receptor responsible being FcεRI, the high affinity receptor for immunoglobulin E (IgE) ([Rivera & Gilfillan, 2006]). Mast cells are tissue-resident cells of hematopoietic lineage which are derived from CD13^+CD34^+KIT(CD117)^+ bone marrow pluripotent progenitors ([Kirshenbaum et al, 1999]). Although mast cells play an important role in the innate immune system ([Marshall, 2004]; [Galli et al, 2005]), these cells are also responsible for the detrimental exaggerated reactions to antigen ([Galli et al, 2008]) that follow the release of potent inflammatory mediators as a consequence of receptor-mediated mast cell activation ([Metcalfe et al, 1997]). The progression of these cells to fully mature mast cells is dependent on c-KIT activation which occurs because of stem cell factor-induced c-KIT dimerization and auto-phosphorylation ([Kirshenbaum et al, 1999]). […]
Brain hemispheres from treated and untreated animals were lysed in 1x STEN buffer and protein concentrations were measured via BCA assay. […]

[2] = 5mg/kg, whole blood, individual mice

Structure (SMILES): Cc1cccc(-c2cc3nccc(Nc4ccccc4)c3s2)c1 [BK40143]
- CD117 (single-labelled mast cells) [1, 2]: 1.06 and 0.7 and 1.08 and 1.14 and 0.83 and 6.55 and 2.98
- CD117 / Total (immature-to-mature mast cell ratio) [1, 2]: 0.9815 and 0.9589 and 0.9231 and 0.9661 and 0.9881 and 0.9278 and 0.9141
- CD117/FcER1 (double-labelled mast cells) [1, 2]: 0.02 and 0.03 and 0.09 and 0.04 and 0.01 and 0.51 and 0.28
- CD117 Total [1, 2]: 1.08 and 0.73 and 1.17 and 1.18 and 0.84 and 7.06 and 3.26
- ratio of immature-to-mature mast cells (c-KIT+ versus c-KIT+/FcεR1α+) in whole blood [1]: significantly greater ratio of immature-to-mature mast cells
- phospho-c-KIT levels in brain (Western blot) (phospho-c-KIT): significant decrease in phospho-c-KIT levels

Structure (SMILES): Cc1cccc(-c2cc3nccc(N4CCOCC4)c3s2)c1 [BK40197]
- ratio of immature-to-mature mast cells (c-KIT+ versus c-KIT+/FcεR1α+) in whole blood [1]: not statistically significant (P = 0.07) increase in immature-to-mature mast cell ratio
- phospho-c-KIT levels in brain (Western blot) (phospho-c-KIT): similar, albeit not statistically significant, trend
